These results are taken from ChEMBL document CHEMBL1955745, “Synthesis and in vitro antitumor activity of asperphenamate derivatives as autophagy inducer” (Bioorg Med Chem Lett, 2012).

pIC50: −log10 of the molar value. Values after ≈ are worked out from the molar mass of the structure shown. Active and inactive are the calls of the source. The rule behind the calls is not given here.

The subject of data set [1] is MCF7. Kind of data set: Selectivity ratio of IC50 for human […] cells to IC50 for human MCF7 cells. Type of data set: functional.
Data set [2] has as its system MCF7. Kind of data set: Cell cycle arrest in human MCF7 cells assessed as accumulation at G0/G1 phase at 10 uM after 48 hrs by propidium iodide staining-based flow cytometric analysis (reference value: 60.01%). In kind it is functional. A general note: Flow cytometry measures light scatter and fluorescence of single cells or particles in a stream.
The test system of data set [3] is MCF7. Kind of data set: Cell cycle arrest in human MCF7 cells assessed as accumulation at subG1 phase at 10 uM after 24 hrs by propidium iodide staining-based flow cytometric analysis (reference value: 4.11%). Type of data set: functional.
The test system of data set [4] is MCF7. Kind of data set: Cell cycle arrest in human MCF7 cells assessed as accumulation at G0/G1 phase at 10 uM after 72 hrs by propidium iodide staining-based flow cytometric analysis (reference value: 60.01%). Type of data set: functional.
The subject of data set [5] is MCF7. The data set is described as follows: Induction of autophagy in human MCF7 cells assessed as increase in cytoplasmic acidic vesicular organelles at 5 to 10 uM after 72 hrs by AO staining-based fluorescence microscopic analysis. In kind it is functional, cell-based.
For data set [6], the system named is MCF7. Kind of data set: Induction of autophagy in human MCF7 cells assessed as increase in cytoplasmic acidic vesicular organelles at 5 to 10 uM after 72 hrs by MDC staining-based fluorescence microscopic analysis. In kind it is functional, cell-based.
Data set [7] relates to MCF7. Kind of data set: Induction of autophagy in human MCF7 cells assessed as increase in […] level at 5 to 10 uM after 48 hrs by Western blot analysis. Type of data set: functional, cell-based.
Data set [8] concerns MCF7. The data set is described as follows: Ratio of IC50 for cisplatin to compound IC50 for human MCF7 cells after 3 days by MTT assay. Type of data set: functional. A general note: Tetrazolium assays rely on reduction of a dye to a coloured formazan, in cell work by metabolically active cells.
The test system of data set [9] is MCF7. The data set is described as follows: Induction of autophagy in human MCF7 cells assessed as autophagic cells at 5 uM after 72 hrs by MDC staining-based flow cytometry (reference value: 2.14%). Type of data set: functional.
Data set [10] has as its system Bel-7402. Kind of data set: Antiproliferative activity against human Bel7402 cells after 3 days by MTT assay. Type of data set: functional, cell-based. The settings on record: Bel-7402, 72 h.
Data set [11] has as its system MCF7. The data set is described as follows: Selectivity ratio of IC50 for human HeLa cells to IC50 for human MCF7 cells. Type of data set: functional.
The test system of data set [12] is MCF7. Kind of data set: Antiproliferative activity against human MCF7 cells after 3 days by MTT assay. Type of data set: functional, cell-based. The settings on record: MCF7, 72 h.
Data set [13] relates to MCF7. The data set is described as follows: Cell cycle arrest in human MCF7 cells assessed as accumulation at G2/M phase at 10 uM after 72 hrs by propidium iodide staining-based flow cytometric analysis (reference value: 20.62%). In kind it is functional.
Data set [14] concerns MCF7. Kind of data set: Cell cycle arrest in human MCF7 cells assessed as accumulation at G0/G1 phase at 10 uM after 24 hrs by propidium iodide staining-based flow cytometric analysis (reference value: 60.01%). In kind it is functional.
Data set [15] deals with MCF7. Kind of data set: Cell cycle arrest in human MCF7 cells assessed as accumulation at S phase at 10 uM after 48 hrs by propidium iodide staining-based flow cytometric analysis (reference value: 14.35%). In kind it is functional.
The subject of data set [16] is MCF7. Kind of data set: Cell cycle arrest in human MCF7 cells assessed as accumulation at subG1 phase at 10 uM after 72 hrs by propidium iodide staining-based flow cytometric analysis (reference value: 4.11%). Type of data set: functional.
Data set [17] concerns HeLa. Kind of data set: Antiproliferative activity against human HeLa cells after 3 days by MTT assay. Type of data set: functional, cell-based. The conditions noted are these: 72 h.
Data set [18] concerns MCF7. Kind of data set: Cell cycle arrest in human MCF7 cells assessed as accumulation at subG1 phase at 10 uM after 48 hrs by propidium iodide staining-based flow cytometric analysis (reference value: 4.11%). In kind it is functional.
Data set [19] concerns MCF7. Kind of data set: Cell cycle arrest in human MCF7 cells assessed as accumulation at S phase at 10 uM after 72 hrs by propidium iodide staining-based flow cytometric analysis (reference value: 14.35%). In kind it is functional.
Data set [20] can be described thus: Thermodynamic solubility of the compound in phosphate buffer at pH 7.4 at 1 mg after 10 mins by HPLC -UV analysis. In kind it is physicochemical. The settings on record: read-out: Therm_solubility.
Data set [21] has as its system MCF7. Kind of data set: Cell cycle arrest in human MCF7 cells assessed as accumulation at S phase at 10 uM after 24 hrs by propidium iodide staining-based flow cytometric analysis (reference value: 14.35%). Type of data set: functional.
Data set [22] relates to MCF7. Kind of data set: Induction of autophagy in human MCF7 cells assessed as decrease in LC3-1 level at 5 to 10 uM after 48 hrs by Western blot analysis. In kind it is functional, cell-based. A general note: Immunoblotting shows a protein as a band on a membrane.
The test system of data set [23] is MCF7. Kind of data set: Induction of autophagy in human MCF7 cells assessed as autophagic cells at 10 uM after 72 hrs by MDC staining-based flow cytometry (reference value: 2.14%). In kind it is functional.
Data set [24] deals with MCF7. Kind of data set: Cell cycle arrest in human MCF7 cells assessed as accumulation at G2/M phase at 10 uM after 24 hrs by propidium iodide staining-based flow cytometric analysis (reference value: 20.62%). In kind it is functional.
Data set [25] has as its system MCF7. Kind of data set: Cell cycle arrest in human MCF7 cells assessed as accumulation at G2/M phase at 10 uM after 48 hrs by propidium iodide staining-based flow cytometric analysis (reference value: 20.62%). Type of data set: functional.

By pIC50 is commonly meant the negative decadic logarithm of the IC50, by convention in mol/L. High values mean a small IC50, low ones a large IC50. Take `O=C(Cc1ccccc1OCc1ccccc1)N[C@H](Cc1ccccc1)C(=O)OC[C@@H](Cc1ccccc1)NC(=O)c1ccccc1`: the “Ratio IC50” value is 5 in data set [1], 1.5 in data set [8] and 5 in data set [11]. Further, the Activity in data set [2] is on record as 59.4%; in data set [3], 1.76%; in data set [4], 57.08%; in data set [9] it was 15.62%; in data set [13] it was 20.38%; in data set [14], 59.85%. Further, the Activity in data set [15] was found to be 17.85%; in data set [16] it was 2.83%; in data set [18] it was 3.16%; in data set [19] it was 16.69%; in [21], 15.98%; in data set [23], 52.62%. Besides, the figures for the Activity in data set [24] and in [25] were 21.65% and 17.07%, respectively. Further, the outcome in data set [5], in data set [6], in [7] and in data set [22] was Active. The pIC50 in data set [10] is 4.49; in data set [12] it was 5.22; in [17], 4.57. In addition, the solubility thermodynamic at 10 min in data set [20] was 223 µg/mL (≈ 356 µM).
For the compound `O=C(N[C@H](COC(=O)[C@H](Cc1ccccc1)NC(=O)c1ccccc1O)Cc1ccccc1)c1ccccc1`, the pIC50 in [10] was 4.19; in data set [12] it was 4.31; in [17], 4.52. For the same compound, the solubility thermodynamic at 10 min in data set [20] came out at 18.2 µg/mL (≈ 34.7 µM).
Take `C[C@H](NC(=O)c1ccccc1)C(=O)OC[C@H](Cc1ccccc1)NC(=O)c1ccccc1`: the pIC50 in [10], in [12] and in data set [17] was < 4.00 each time. Also, the solubility thermodynamic at 10 min in [20] worked out at 329 µg/mL (≈ 764 µM).
As to `O=C(N[C@H](COC(=O)[C@H](Cc1ccccc1)NC(=O)c1ccccc1)Cc1ccccc1)c1ccccc1` [ASPERPHENAMATE], the pIC50 is < 4.00 in data set [10], 4.02 in data set [12] and < 4.00 in data set [17]. Besides, the solubility thermodynamic at 10 min in data set [20] amounted to 8.85 µg/mL (≈ 17.5 µM).
For the compound `O=C(Cc1ccccc1O)N[C@@H](Cc1ccccc1)C(=O)OC[C@H](Cc1ccccc1)NC(=O)c1ccccc1`, the pIC50 in [10], in data set [12] and in data set [17] was < 4.00 throughout. Moreover, in [20], the solubility thermodynamic at 10 min turned out to be 349 µg/mL (≈ 650 µM).
Turning to `CC(=O)N[C@@H](Cc1ccccc1)C(=O)OC[C@H](Cc1ccccc1)NC(=O)c1ccccc1`, the results for the pIC50 in data set [10], in data set [12] and in data set [17] were < 4.00, 4.05 and < 4.00, respectively. For the same compound, the solubility thermodynamic at 10 min in [20] is 560 µg/mL (≈ 1260 µM).
Take `O=C(Cc1ccccc1O)N[C@H](Cc1ccccc1)C(=O)OC[C@H](Cc1ccccc1)NC(=O)c1ccccc1`: the pIC50 in [10] is 4.27; in data set [12], 4.20; in data set [17], 4.27. The solubility thermodynamic at 10 min in [20] worked out at 524 µg/mL (≈ 977 µM).
For the compound `O=C(Cc1ccccc1OCc1ccccc1)N[C@@H](Cc1ccccc1)C(=O)OC[C@H](Cc1ccccc1)NC(=O)c1ccccc1`, the pIC50 in data set [10], in [12] and in data set [17] was < 4.00 each time. For the same compound, the solubility thermodynamic at 10 min in [20] is 223 µg/mL (≈ 356 µM).
On to `O=C(N[C@H](COC(=O)[C@H](Cc1ccccc1)NC(=O)c1ccccc1OCc1ccccc1)Cc1ccccc1)c1ccccc1`, for which the pIC50 in [10], in data set [12] and in data set [17] was < 4.00 each time. In addition, the solubility thermodynamic at 10 min in data set [20] is 26.3 µg/mL (≈ 43 µM).
On to `O=C(Cc1ccc(O)cc1)N[C@@H](Cc1ccccc1)C(=O)OC[C@H](Cc1ccccc1)NC(=O)c1ccccc1`, for which the figures for the pIC50 in [10], in [12] and in data set [17] were 4.03, 4.10 and 4.20, respectively. Also, the solubility thermodynamic at 10 min in [20] came out at 109 µg/mL (≈ 204 µM).
Regarding `CC(=O)N[C@H](COC(=O)[C@H](Cc1ccccc1)NC(=O)c1ccccc1)Cc1ccccc1`, the figures for the pIC50 in [10], in data set [12] and in [17] were 4.10, 4.31 and 4.15, respectively. Besides, the solubility thermodynamic at 10 min in data set [20] was 485 µg/mL (≈ 1090 µM).
On to `C[C@@H](COC(=O)[C@@H](Cc1ccccc1)NC(=O)c1ccccc1)NC(=O)c1ccccc1`, for which the pIC50 in [10], in data set [12] and in data set [17] was < 4.00 throughout. Moreover, the solubility thermodynamic at 10 min in [20] is 236 µg/mL (≈ 549 µM).
`C[C@@H](NC(=O)c1ccccc1)C(=O)OC[C@H](Cc1ccccc1)NC(=O)c1ccccc1`: the pIC50 in [10], in data set [12] and in data set [17] was < 4.00 throughout. In addition, the solubility thermodynamic at 10 min in [20] turned out to be 192 µg/mL (≈ 445 µM).
As to `O=C(N[C@H](COC(=O)[C@@H](Cc1ccccc1)NC(=O)c1cccc(O)c1)Cc1ccccc1)c1ccccc1`, the pIC50 in data set [10] is 4.40; in [12] it was 4.37; in data set [17] it was 4.58. The solubility thermodynamic at 10 min in data set [20] is 2000 µg/mL (≈ 3820 µM).
In the same order, the values of `O=C(N[C@H](COC(=O)[C@@H](Cc1ccccc1)NC(=O)c1ccccc1OCc1ccccc1)Cc1ccccc1)c1ccccc1` are 4.50, 4.37, 4.61 and 42.6 µg/mL (≈ 69.5 µM).
Consider `O=C(N[C@H](COC(=O)[C@@H](Cc1ccccc1)NC(=O)c1ccccc1)Cc1ccccc1)c1ccccc1`, for which the pIC50 in data set [10], in data set [12] and in data set [17] was < 4.00 throughout. Further, the solubility thermodynamic at 10 min in data set [20] came out at 3.21 µg/mL (≈ 6.34 µM).
